Earlier results on 2 compounds are cited in patent publication US20140248345A1 (Merck Sharp & Dohme Corp., priority 2011, published 2014).

The series deals with human Type 2 diabetics. The conditions noted are these: oral administration.

On to `N#C[C@@H]1CCCN1C(=O)CNC12CC3CC(CC(O)(C3)C1)C2` [vildagliptin, (S)-1-[(3-hydroxy-1-adamantyl)amino]acetyl-2-cyano-pyrrolidine], for which the HbA1c levels entry is reported as “significantly reduced”; the “fasting glucose and postprandial glucose excursion” value is “reduce fasting glucose and postprandial glucose excursion”.

Take `N[C@@H](CC(=O)N1CCn2c(nnc2C(F)(F)F)C1)Cc1cc(F)c(F)cc1F` [sitagliptin, (2R)-4-oxo-4-[3-(trifluoromethyl)-5,6-dihydro[1,2,4]triazolo[4,3-a]pyrazin-7(8H)-yl]-1-(2,4,5-trifluorophenyl)butan-2-amine]: the HbA1c levels entry is “significantly reduced”; the “fasting glucose and postprandial glucose excursion” value is “reduce fasting glucose and postprandial glucose excursion”.
